Measurements published in BigSolDB 2.1.

CN1COCN(Cc2cnc(Cl)s2)C1=N[N+](=O)[O-]
solubility (mole fraction)
Conditions | 278.15 K | 283.15 K | 288.15 K | 293.15 K | 298.15 K | 303.15 K | 308.15 K | 313.15 K | 318.15 K | 323.15 K
in 1,4-dioxane | – | – | 0.00255 | 0.00328 | 0.00404 | 0.00523 | 0.00637 | 0.00792 | 0.00985 | 0.0123
in 2-ethoxyethanol | 0.00319 | 0.00411 | 0.00523 | 0.00627 | 0.00722 | 0.00839 | 0.01 | 0.0117 | 0.0141 | 0.0168
in 2-methoxyethanol | 0.00727 | 0.00895 | 0.011 | 0.013 | 0.0152 | 0.0185 | 0.0218 | 0.026 | 0.0311 | 0.0374
in DMAc | 0.0679 | 0.074 | 0.0817 | 0.0902 | 0.0988 | 0.108 | 0.12 | 0.133 | 0.145 | 0.157
in DMSO | – | – | 0.0689 | 0.0786 | 0.0902 | 0.103 | 0.117 | 0.134 | 0.152 | 0.172
in acetic acid | – | – | – | 0.013 | 0.0172 | 0.0227 | 0.0292 | 0.0387 | 0.0547 | 0.07
in acetonitrile | 0.00704 | 0.00827 | 0.0105 | 0.0125 | 0.0149 | 0.0183 | 0.0227 | 0.0278 | 0.0344 | 0.0422
in methanol | 0.000628 | 0.000817 | 0.00111 | 0.00141 | 0.00169 | 0.00225 | 0.00294 | 0.00397 | 0.00486 | 0.0063
in propionic acid | 0.000769 | 0.00113 | 0.00147 | 0.00185 | 0.00252 | 0.00329 | 0.00406 | 0.00562 | 0.00739 | 0.00939
